Test results reported in patent US10689378B2, “Triazolopyridine compounds and uses thereof” (Novartis AG, priority 2016, dated 2020).
Like-named read-outs stand apart in the source and are kept apart here.

Experiments:
EED (1-441)-His protein = target: T1, EED (1-441)-His protein (Homo sapiens, UniProt O75530); assay: EED-H3K27Me3 peptide competition binding assay by AlphaScreen
T1 construct: 30 nM EED (1-441)-His protein
Method: EED-H3K27Me3 Peptide Competition Binding Assay by AlphaScreen (α-Screen)
To assess the compounds' potency in the EED-H3K27Me3 competition binding assay, compounds were serially diluted 3-fold in DMSO to obtain a total of twelve concentrations. Then compounds at each concentration (75 nL of each) were transferred by Mosquito into a 384-well Perkin Elmer ProxiPlate 384 plus plates. 8 uL of solutions containing 30 nM EED (1-441)-His protein and 15 nM biotin-H3K27Me3 (19-33) peptide in the buffer (25 mM HEPES, pH 8, 0.02% Tween-20, 0.5% BSA) were added to the wells and then incubated with compound for 20 min. AlphaScreen detection beads mix was prepared immediately before use by mixing nickel chelate acceptor beads and streptavidin donor beads in a 1:1 ratio (Perkin Elmer, Product No. 6760619C/M/R) into the buffer described above. Then 4 μL of detection beads mix was added to the plate and incubate in the dark at the rt for 1 h. The final concentration of donor and acceptor beads was 10 μg/mL for each. Plates were read on EnVision (PerkinElmer) using the AlphaScreen setting adapted for optimal signal detection with a 615 nm filter, after sample excitation at 680 nm. The emission signal at 615 nm was used to quantify compounds inhibition. AlphaScreen signals were normalized based on the reading coming from the positive (maximum signal control) and negative controls (minimum signal control) to give percentage of activities left. The data were then fit to a dose response equation using the program Helios (Novartis) to get the IC50 values. Helios is a Novartis in-house assay data analysis software using the methods described by Normolle, D. P., Statistics in Medicine, 12:2025-2042 (1993); Formenko, I. et al, Computer Methods and Programs in Biomedicine, 82, 31-37 (2006); Sebaugh, J. L., Pharmaceutical Statistics, 10:128-134 (2011); Kelly, C. et al., Biometrics, 46(4):1071-1085 (1990); and Kahm, M. et al., Journal of Statistical Software, 33 (7): (2010) (grofit: Fitting Biological Growth Curves with R, pages 1-21, available at http://www.jstatsoft.org/).

[1] = tested on: H3K27 methylation in G401 cell; assay: ELISA (H3K27 methylation) assay in G401 cells; type: cell-based, human; details: Homo sapiens
Method: Compounds of the present invention were assessed for their ability to inhibit PRC2 activity in a pentameric complex of EZH2, SUZ12, EED, Rbap48 and AEBP in biochemical assays. The ability of compounds of the present invention to inhibit cellular activity of PRC2 was assessed by analysing histone H3 lysine 27 methylation in human cell lines. The ability of compounds of the present invention to inhibit cancers was derived from their ability to modulate activity in human cancer cell lines bearing specific dependence to PRC2 activity to maintain cancerous growth.
ELISA (H3K27 Methylation) Assay
Representative compounds of the present invention were serially and separately diluted 3-fold in DMSO to obtain a total of eight or twelve concentrations. Then the compounds were added to G401 cell cultured in 384-well plate at 1:500 dilution to obtain the highest concentration of 20 μM. The cells were further cultured for 48 h before ELISA procedure.
Histone extraction: Cells, in 384-well plate, were washed with PBS (10×PBS buffer (80 g NaCl (Sigma, S3014), 2 g KCl (Sigma, 60128), 14.4 g Na2HPO4 (Sigma, S5136), 2.4 g KH2PO4 (Sigma, P9791) to 1 L water, pH to 7.4) and lysed with the addition of lysis buffer (0.4N HCl; 45 μL per well). The plate was gently agitated at 4° C. for 30 min. The cell lysate was neutralized with neutralization buffer (0.5 M sodium phosphate dibasic, pH 12.5, 1 mM DTT; 36 μL per well). The plate was agitated to ensure the lysates were well mixed prior to the ELISA protocol.
ELISA protocol: Cell lysates were transferred to the wells of a 384-well plate and the final volume was adjusted to 50 μL per well with PBS. The plate was sealed, centrifuged at 2,000 rpm for 2 min and incubated at 4° C. for about 16 h. The plate was washed with TBST buffer (1×TBS (10×TBS: 24.2 g Tris (Sigma, T6066), 80 g NaCl (Sigma, S3014) to 1 L of water and adjust pH to 7.6 with HCl) with 0.1% Tween-20). Blocking buffer (TBST, 5% BSA; 50 μL per well) was added and the plate was incubated for 1 h at rt. The blocking buffer was removed and primary antibody was added (30 μL per well). The following dilutions were performed with blocking buffer: for anti-H3K27me3 antibody (Cell Signaling Technology, #9733), dilution was 1:1000; for anti-H3K27me2 antibody (Cell Signaling Technology, #9288), dilution was 1:100; for anti-H3 antibody (Abcam, Cat #24834), dilution was 1:1000. The primary antibody was incubated in the plate at rt for 1 h. The wells were washed with TBST and incubated with secondary antibody for 1 h at rt. For secondary antibodies, the following dilutions were carried out with blocking buffer: anti-rabbit antibody (Jackson ImmunoResearch, #111-035-003), dilution was 1:2000; and anti-mouse antibody (Cell signaling technology, #7076), dilution was 1:1000. After 1 h of incubation at rt, the wells were washed with TBST. ECL substrate (Pierce, #34080) was added at 30 μL per well and the plates were centrifuged at 2,000 rpm for 2 min. The signal was read using a PerkinElmer Envision Reader. The H3K27 methylation readouts were normalized using H3 signal and then percentage inhibition was calculated against the samples treated with DMSO. The data were then fit to a dose response curve using the program Helios to get the IC50 values of the test compound.

[2] = read-out: (a) IC50, EED Alphascreen binding Qualified
[3] = G-401, read-out: (c) IC50, ELISA Qualified
[4] = EED-H3K27Me3 peptide competition, AlphaScreen, read-out: (a) IC50 EED Alphascreen binding Qualified
[5] = G-401, H3K27 methylation ELISA, read-out: (c) IC50 ELISA Qualified

T1 sequence (O75530 whole entry): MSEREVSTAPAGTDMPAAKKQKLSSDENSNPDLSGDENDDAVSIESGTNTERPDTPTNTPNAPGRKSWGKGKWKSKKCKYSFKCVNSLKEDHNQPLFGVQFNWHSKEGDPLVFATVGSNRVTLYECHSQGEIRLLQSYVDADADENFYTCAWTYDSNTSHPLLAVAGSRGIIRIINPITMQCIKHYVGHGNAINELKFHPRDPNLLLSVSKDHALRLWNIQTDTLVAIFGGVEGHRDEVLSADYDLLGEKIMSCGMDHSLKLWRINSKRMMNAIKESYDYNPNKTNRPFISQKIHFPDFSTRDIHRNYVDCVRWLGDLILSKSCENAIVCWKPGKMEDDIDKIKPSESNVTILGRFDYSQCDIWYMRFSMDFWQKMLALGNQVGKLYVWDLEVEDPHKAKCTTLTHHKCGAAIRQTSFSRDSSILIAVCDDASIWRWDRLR

COc1ccc(F)c(CNc2ccc(-c3ccc(S(C)(=O)=O)cc3)c3nncn23)c1 [Example 120, N-(2-fluoro-5-methoxybenzyl)-8-(4-(methylsulfonyl)phenyl)-[1,2,4]triazolo[4,3-a]pyridin-5-amine]
IC50 (EED (1-441)-His protein; [2]): 0.244 µM | IC50 [1, 3]: 0.19 µM

COc1ccc(F)c(CNc2ccc(-c3cccnc3)c3nncn23)c1 [Example 121, N-(2-fluoro-5-methoxybenzyl)-8-(pyridin-3-yl)-[1,2,4]triazolo[4,3-a]pyridin-5-amine]
IC50 (EED (1-441)-His protein; [2]): 0.68 µM | IC50 [1, 3]: 0.299 µM

COc1ccc(F)c(CNc2ccc(-c3ccc(S(C)(=O)=O)nc3)c3nncn23)c1 [Example 122, N-(2-fluoro-5-methoxybenzyl)-8-(6-(methylsulfonyl)pyridin-3-yl)-[1,2,4]triazolo[4,3-a] pyridin-5-amine]
IC50 (EED (1-441)-His protein; [2]): 0.313 µM | IC50 [1, 3]: 0.138 µM

COc1cccc(F)c1CNc1ccc(-c2cnn(C)c2)c2nncn12 [Example 125, N-(2-fluoro-6-methoxybenzyl)-8-(1-methyl-1H-pyrazol-4-yl)-[1,2,4] triazolo[4,3-a]pyridin-5-amine]
IC50 (EED (1-441)-His protein; [2]): 0.153 µM | IC50 [1, 3]: 0.173 µM

COc1cc(F)ccc1CNc1ccc(-c2ccc(NS(C)(=O)=O)c(F)c2)c2nncn12 [Example 129, N-(2-fluoro-4-(5-((4-fluoro-2-methoxybenzyl)amino)-[1,2,4]triazolo[4,3-a]pyridin-8-yl)phenyl)methane sulfonamide]
IC50 (EED (1-441)-His protein; [2]): 0.381 µM | IC50 [1, 3]: 0.854 µM

COc1cc(F)ccc1CNc1ccc(-c2ccc(S(C)(=O)=O)nc2)c2nncn12 [Example 134, N-(4-fluoro-2-methoxybenzyl)-8-(6-(methylsulfonyl)pyridin-3-yl)-[1,2,4]triazolo[4,3-a] pyridin-5-amine]
IC50 (EED (1-441)-His protein; [2]): 0.177 µM | IC50 [1, 3]: 0.538 µM

COc1ccc(F)cc1CNc1ccc(-c2ccc(S(=O)(=O)C3CCN(C)CC3)cc2)c2nncn12 [Example 135, N-(5-fluoro-2-methoxybenzyl)-8-(4-((1-methylpiperidin-4-yl)sulfonyl)phenyl)-[1,2,4]triazolo[4,3-a] pyridin-5-amine]
IC50 (EED (1-441)-His protein; [2]): 0.444 µM | IC50 [1, 3]: 0.279 µM

COc1c(F)cccc1CNc1ccc(-c2ccc(S(C)(=O)=O)nc2)c2nncn12 [Example 136, N-(3-fluoro-2-methoxybenzyl)-8-(6-(methylsulfonyl)pyridin-3-yl)-[1,2,4]triazolo[4,3-a] pyridin-5-amine]
IC50 (EED (1-441)-His protein; [2]): 2.88 µM | IC50 [1, 3]: 11.4 µM

COc1c(F)cccc1CNc1ccc(-c2ccncc2)c2nncn12 [Example 137, N-(3-fluoro-2-methoxybenzyl)-8-(pyridin-4-yl)-[1,2,4]triazolo[4,3-a]pyridin-5-amine]
IC50 (EED (1-441)-His protein; [2]): 0.344 µM | IC50 [1, 3]: 0.733 µM

COc1c(F)cccc1CNc1ccc(-c2ccc(S(=O)(=O)C3CCN(C)CC3)cc2)c2nncn12 [Example 138, N-(3-fluoro-2-methoxybenzyl)-8-(4-((1-methylpiperidin-4-yl)sulfonyl)phenyl)-[1,2,4] triazolo[4,3-a]pyridin-5-amine]
IC50 (EED (1-441)-His protein; [2]): 1.27 µM | IC50 [1, 3]: 2.9 µM

COc1cccc(F)c1CNc1ccc(-c2cnc(N(C)C)nc2)c2nncn12 [Example 141, 8-(2-(dimethylamino)pyrimidin-5-yl)-N-(2-fluoro-6-methoxybenzyl)-[1,2,4] triazolo[4,3-a]pyridin-5-amine]
IC50 (EED (1-441)-His protein; [2]): 0.118 µM | IC50 [1, 3]: 0.761 µM

COc1c(F)cccc1CNc1ccc(-c2cccnc2)c2nncn12 [Example 144, N-(3-fluoro-2-methoxybenzyl)-8-(pyridin-3-yl)-[1,2,4]triazolo[4,3-a]pyridin-5-amine]
IC50 (EED (1-441)-His protein; [2]): 1.27 µM | IC50 [1, 3]: 0.986 µM

COc1cccc(F)c1CNc1ccc(-c2cnn(CCO)c2)c2nncn12 [Example 145, 2-(4-(5-((2-fluoro-6-methoxybenzyl)amino)-[1,2,4]triazolo[4,3-a]pyridin-8-yl)-1H-pyrazol-1-yl)ethanol]
IC50 (EED (1-441)-His protein; [2]): 0.125 µM | IC50 [1, 3]: 0.118 µM

COc1c(F)cc(F)cc1CNc1ccc(-c2ccc(CN(C)C)cc2)c2nncn12 [Example 146, N-(3,5-difluoro-2-methoxybenzyl)-8-(4-((dimethylamino)methyl)phenyl)-[1,2,4]triazolo[4,3-a] pyridin-5-amine]
IC50 (EED (1-441)-His protein; [2]): 1.98 µM | IC50 [1, 3]: 4.11 µM

COc1cc(F)ccc1CNc1ccc(-c2ccc(S(=O)(=O)C3CCN(C)CC3)cc2)c2nncn12 [Example 153, N-(4-fluoro-2-methoxybenzyl)-8-(4-((1-methylpiperidin-4-yl)sulfonyl)phenyl)-[1,2,4]triazolo[4,3-a] pyridin-5-amine]
IC50 (EED (1-441)-His protein; [2]): 0.168 µM | IC50 [1, 3]: 0.223 µM

COc1cc(CNc2ccc(-c3ccc(CN(C)C)cc3)c3nncn23)ccc1F [Example 156, 8-(4-((dimethylamino)methyl)phenyl)-N-(4-fluoro-3-methoxybenzyl)-[1,2,4] triazolo[4,3-a]pyridin-5-amine]
IC50 (EED (1-441)-His protein; [2]): 1.35 µM | IC50 [1, 3]: 0.788 µM

COc1cc(F)cc(CNc2ccc(-c3ccc(CN(C)C)cc3)c3nncn23)c1 [Example 171, 8-(4-((dimethylamino)methyl)phenyl)-N-(3-fluoro-5-methoxybenzyl)-[1,2,4]triazolo[4,3-a]pyridin-5-amine]
IC50 (EED (1-441)-His protein; [2]): 0.839 µM | IC50 [1, 3]: 1.1 µM

COc1ccccc1-c1ccc(NCc2c(F)cccc2OC)n2cnnc12 [Example 191, N-(2-fluoro-6-methoxybenzyl)-8-(2-methoxyphenyl)-[1,2,4]triazolo[4,3-a] pyridin-5-amine]
IC50 (EED (1-441)-His protein; [4]): 0.479 µM | IC50 [1, 5]: 0.996 µM

COc1cccc(F)c1CNc1ccc(-c2ccccc2C(F)(F)F)c2nncn12 [Example 193, N-(2-fluoro-6-methoxybenzyl)-8-(2-(trifluoromethyl)phenyl)-[1,2,4]triazolo[4,3-a]pyridin-5-amine]
IC50 (EED (1-441)-His protein; [4]): 0.283 µM | IC50 [1, 5]: 0.704 µM

COc1cccc(F)c1CNc1ccc(-c2cncc(C(C)O)c2)c2nncn12 (stereo not shown) [Example 197, 1-(5-(5-((2-fluoro-6-methoxybenzyl)amino)-[1,2,4]triazolo[4,3-a]pyridin-8-yl)pyridin-3-yl)ethanol]
IC50 (EED (1-441)-His protein; [4]): 0.414 µM | IC50 [1, 5]: 0.161 µM
